The compounds below were run on HT-29 human colon cancer cells (assay: MTT cell growth inhibition, HT-29). Conditions: Homo sapiens; HT-29, 24 h (Table 5); in combinations the IC50 of ASA with fixed concentrations of SNAP and/or ADT-OH; read-out: IC50 at 24 hours for HT-29 cell growth inhibition.
Assay type: cell-based
Protocol: HT-29, SW-480 and HCT-15 human colon adenocarcinoma, MIA PaCa-2 and BxPC-3 human pancreatic cancer, LNCAP human prostate cancer, A549 human lung cancer, MCF-7 (estrogen receptor positive), MDA-MB 231 and SK-BR-3 (estrogen receptor negative) human breast cancer, and Jurkats human leukemia cell lines were obtained from American Type Tissue Collection (Manassas, Va.). All cells lines were grown as monolayers except for the Jurkats which were grown in suspension. The pancreatic and breast cancer cells were grown in Dulbecco's modified Eagle's medium, the prostate, Jurkat, SW-480 and HCT-15 colon cells were grown in RPMI 1640 medium, the lung cells were grown in F-12 and the colon HT-29 cells were grown in McCoy 5A. All media were supplemented with 10% fetal calf serum (Invitrogen, Carlsbad, Calif.) penicillin (50 U/ml), and streptomycin (50 μg/ml) (Invitrogen, Carlsbad, Calif.). Cells were seeded on culture dishes at a density of 25×10^3 cells/cm^2 and incubated at 37° C. in 5% CO2 and 90% relative humidity. Single cell suspensions were obtained by trypsinization (0.05% trypsin/EDTA), and cells were counted using a hemocytometer. Viability was determined by the trypan blue dye exclusion method.
Cell growth inhibitory effect of NOSH compounds were measured using a colorimetric MTT assay kit (Roche, Indianapolis, Ind.). Cancer cells were plated in 96-well plates at a density of 50,000 cells/well. The cells were incubated for 24 h with different concentrations of NOSH compounds. After the indicated time, 10 μl of MTT dye (3-[4,5-dimethylthiazol-2-yl]-2,5-diphenyl tetrazolium bromide, 5 mg/ml in phosphate buffered saline), was added to each well, and the plates were incubated for 2 hours at 37° C. Then, the media was aspirated, and add 100 μl of the solubilization solution (10% SDS in 0.01 M HCl) was added to each well to solubilize the formant crystals. The absorbance of the plates was measured on an ELISA reader at a wavelength of 570 nm. Each sample was performed in triplicate, and the entire experiment was repeated three times.
HT-29 human colon cancer cells were obtained from American Type Tissue Collection (Manassas, Va.) and grown as monolayer in McCoy 5A media that was supplemented with 10% fetal calf serum (Invitrogen, Carlsbad, Ca.), penicillin (50 U/ml), and streptomycin (50 μg/ml) (Invitrogen, Carlsbad, Calif.).
Growth inhibition was measured using a colorimetric MTT assay kit (Roche, Indianapolis, Ind.). Proliferation (PCNA) was assessed using an ELISA kit from Calbiochem, (La Jolla, Calif.). Cell cycle phase distributions and apoptosis of control and treated cells were determined as previously described. All methods are described in Chattopadhyay et al., Biochemical Pharmacology, 2012, 83(6), 715-722.
HT-29, SW-480 and HCT-15 human colon adenocarcinoma, MIA PaCa-2 and BxPC-3 human pancreatic cancer, LNCAP human prostate cancer, A549 and H383 human lung cancer, MCF-7, MDA-MB 231 and SK-BR-3 human breast cancer and Jurkat T cell human leukemia cell lines were obtained from American Type Tissue Collection (Manassas, Va.) All cells lines were grown as monolayers except for the Jurkat T cells which were grown as suspension culture. The pancreatic and breast cancer cells were grown in Dulbecco's modified Eagle's medium, the prostate, Jurkat, SW-480 and HCT-15 colon cells were grown in RPMI 1640 medium, the lung cells were grown in F-12 and the colon HT-29 cells were grown in McCoy 5A. All media were supplemented with 10% fetal calf serum (Invitrogen, Carlsbad, Calif.) penicillin (50 U/ml), and streptomycin (50 μg/ml) (Invitrogen, Carlsbad, Calif.). Cells were seeded on culture dishes at a density of 25×10^3 cells/cm^2 and incubated at 37° C. in 5% CO2 and 90% relative humidity. Single cell suspensions were obtained by trypsinization (0.05% trypsin/EDTA), and cells were counted using a hemacytometer. The final DMSO concentration was adjusted in all media to 1%. Viability was determined by the trypan blue dye exclusion method. […]

| IC50 [µM] | Structure (SMILES) |
| --- | --- |
| 26 ± 3 | Oc1ccc(-c2cc(=S)ss2)cc1 [ADT-OH, 5-(4-hydroxyphenyl)-3H-1,2-dithiole-3-thione, reference compound] |
| 530 ± 45 | CC(=O)N[C@H](C(=O)O)C(C)(C)SN=O [SNAP, S-nitroso-N-acetyl-penicillamine, reference compound] |

Same assay, conditions: Homo sapiens; HT-29 colon cancer cells, 24 hours (Table 3); read-out: IC50 at 24 hours for cell growth inhibition

| Structure (SMILES) | IC50 [µM] |
| --- | --- |
| CC(=O)Oc1ccccc1C(=O)Oc1ccc(-c2cc(=S)ss2)cc1 [HS-ASA, 4-(5-thioxo-5H-1,2-dithiol-3-yl)-phenyl 2-acetoxybenzoate, reference compound] | 4 ± 0.5 |
| CC(=O)Oc1ccccc1C(=O)OCCCOO[N+](=O)[O-] [aliphatic-NO-ASA, 3-(nitroperoxy)propyl 2-acetoxybenzoate, reference compound] | 750 ± 35 |
| CC(=O)Oc1ccccc1C(=O)Oc1cccc(CO[N+](=O)[O-])c1 [m-NO-ASA, 2-(acetyloxy)benzoic acid 3-(nitrooxymethyl)phenyl ester, reference compound] | 185 ± 15 |

More lines, now with the values ahead:

| IC50 [µM] | Structure (SMILES) |
| --- | --- |
| 8 ± 3 | CC(=O)Oc1ccccc1C(=O)Oc1ccccc1CO[N+](=O)[O-] [o-NO-ASA, 2-(acetyloxy)benzoic acid 2-(nitrooxymethyl)phenyl ester, reference compound] |
| 10 ± 2 | CC(=O)Oc1ccccc1C(=O)Oc1ccc(CO[N+](=O)[O-])cc1 [p-NO-ASA, 2-(acetyloxy)benzoic acid 4-(nitrooxymethyl)phenyl ester, reference compound] |
